Entries after “also recorded” stand apart in the source; their conditions may differ.
B1: HAPLN1: hyaluronan and proteoglycan link protein 1 (SEQ ID NO: 1), added to chondrogenic media at 100 ng/mL (protein, listed as Homo sapiens)
chain: MKSLLLLVLISICWADHLSDNYTLDHDRAIHIQAENGPHLLVEAEQAKVFSHRGGNVTLPCKFYRDPTAFGSGIHKIRIKWTKLTSDYLKEVDVFVSMGYHKKTYGGYQGRVFLKGGSDSDASLVITDLTLEDYGRYKCEVIEGLEDDTVVVALDLQGVVFPYFPRLGRYNLNFHEAQQACLDQDAVIASFDQLYDAWRGGLDWCNAGWLSDGSVQYPITKPREPCGGQNTVPGVRNYGFWDKDKSRYDVFCFTSNFNGRFYYLIHPTKLTYDEAVQACLNDGAQIAKVGQIFAAWKILGYDRCDAGWLADGSVRYPISRPRRRCSPTEAAVRFVGFPDKKHKLYGVYCFRAYN

Legend:
Y201 OA models = assay: q-PCR of OA models with coated scaffolds or HAPLN1 modified chondrogenic media; type: cell-based, human; conditions: OA models (cytokine stimulated); for fold change of MMP13 gene expression: scaffold coating or media supplement
Experimental: (§1) To improve the overall quality of the model and encourage aggrecan deposition a range of separate coatings were applied to the 3D scaffold. The applied coatings were selected from human collagen type II, human hyaluronan and human aggrecan to empty 3D scaffolds. Specifically, COL-II was solubilised to 1 mg/mL in 0.5M acetic acid. Stock was diluted 1:500 in PBS and 10 uL layered onto each scaffold. Scaffolds were left to air dry overnight at 2-8 degrees. The next day scaffolds there gently washed in PBS and were ready for use. Hyaluronan was reconstituted into a 1% w/v stock in sterile water. 10 uL was added to each scaffold and left to polymerise at 37 degrees for 1 hour. Following this incubation scaffolds were ready to use. Aggrecan was reconstituted in PBS to create a 100ug/mL stock solution. This stock was used neat, with 10 uL added to each scaffold. Scaffolds were incubated at 37 degrees for several hours prior to use.
(§2) An independent modification was also made to the chondrogenic media. This involved the addition of the HAPLN1 link protein (SEQ ID NO: 1). Specifically, HAPLN1 stock solution was added to chondrogenic media at a working concentration of 100 ng/mL. The resulting medium composition (complete) is outlined in Table 1. L-Ascorbic acid-2-phosphate and HAPLN1 link protein have limited shelf life at 4° C. and so are added to aliquots of incomplete CDM (all components of Table 1 with the exception of L-Ascorbic acid-2-phosphate and HAPLN1 link protein) to create complete CDM on day 7. Preparation of HAPLN1 link protein (Cat #2608-HP RnD sytems) is as follows: • Unit concentration: 25 μg • Solvent: PBS • Reconstitution volume: 250 μl • Stock concentration: 100 μg/mL • Working concentration: 100 ng/mL • Use: 1:1000 dilution for working concentration. E.g. 50 μL of stock into 50 mL of media. • HAPLN1 is reportedly stable for 1 month at 4° C.
(§3) The resulting models were stimulated with cytokines using previously established protocols to create OA models. Following cytokine stimulation, the resulting OA models were harvested and analysed for q-PCR, and immunofluorescent (IF). The supernatant was also harvested and analysed using ELISAs and FRET assays. All analyses were conducted in triplicate.

[1] = tested on: Y201 models and OA models; assay: Aggrecan / collagen II immunofluorescence (IHC) of models and OA models with coatings or media modification; type: cell-based, human
Experimental: as §1, §2, §3

[2] = tested on: Y201 models and OA models; assay: ELISA of MMP13 and ADAMTS4 in supernatant of modified models and OA models; type: cell-based, human; conditions: OA models vs models; for MMP13 concentration in supernatant (ELISA): coating or supplement
Experimental: as §1, §2, §3

[3] = at 4° C.; cited from earlier work
[4] = models not stimulated with cytokines
[5] = OA models (cytokine stimulated)

| Molecule | ADAMTS5 gene expression (Y201 OA models; coated scaffolds) | aggrecan staining [1, 4] | MMP13 concentration in supernatant (ELISA) [2] | gene expression profile vs uncoated OA models (Y201 OA models; coated scaffolds) | ADAMTS4 concentration in supernatant (ELISA) ([2]; coating) | fold change of MMP13 gene expression (Y201 OA models) | aggrecan staining [1, 5] | collagen II production (immunofluorescence) ([1]; MSCs differentiated to chondrocytes in presence of HAPLN1) | stability [3] |
| --- | --- | --- | --- | --- | --- | --- | --- | --- | --- |
| Collagen type II: human collagen type II applied as coating to the 3D scaffold | increase in expression of ADAMTS5 | did not stain positively of aggrecan | decrease in the levels of MMP13 | – | – | – | – | – | – |
| Hyaluronan | – | did not stain positively of aggrecan | decrease in the levels of MMP13 | comparable | increase in ADATS4 levels | – | – | – | – |
| aggrecan: human aggrecan applied as coating to the 3D scaffold | – | did not stain for aggrecan | increased MMP13 levels | – | – | ~19 fold | aggrecan was detected | – | – |
| B1 | – | did stain for aggrecan; also recorded: significant levels of ACAN protein | increased MMP13 levels | – | – | ~6 fold | no staining of aggrecan | does not have a negative effect on collagen II production | 1 month |
